# Measurements reported in article PMC9545004, “Transglutaminase 2 affinity and enzyme‐substrate intermediate stability as determining factors for T‐cell responses to gluten peptides in celiac disease” (European Journal of Immunology, 2022).
# Test system: TG2-specific A20 cells expressing DQ2.5 and DQ2.5-glia-ω2 TCR transfectants
# Experiment: Effect of primary amines on T-cell response to deamidated gluten peptide (off-target/toxicity control)
# Assay type: cell-based, Murine A20 B cells and BW58α–β– cells
# Details: 30 min pre-incubation of A20 cells with amine, then D-ω-gliadin 34-mer and DQ2.5-glia-ω2 TCR transfectants; IL-2; Figure S6
# Protocol: The B‐cell/T‐cell collaboration assays were set up as previously described. To compare the uptake and presentation of different gluten peptides to T cells, A20 cells (5 mill/mL) expressing the TG2‐specific BCR (679‐14‐E06) and HLA DQ2.5 were incubated with recombinant TG2 (final 3 µg/mL) and varying amounts of N‐α‐gliadin 20‐mer, N‐ω‐gliadin 19‐mer, or N‐γ‐gliadin 21‐mer in RPMI supplemented with 2 mM CaCl2. After a 30 min incubation at 37°C the cells were washed with 1% FCS/RPMI and resuspended in 5% FCS/RPMI to give a final 1.5 million cells/mL (150 000/well) followed by 2 h incubation at 37°C. Next, TCR‐transfectant cells specific for either DQ2.5‐glia‐α2, DQ2.5‐glia‐ω2, or DQ2.5‐glia‐γ1 were added (25 000/well), followed by overnight incubation at 37°C. The next day, IL‐2 concentration was measured in the culture supernatant by ELISA as previously described. The responsiveness of different TCR transfectants was assessed in the same way, but without the 30 min incubation with TG2, and using the synthetic deamidated peptides (D‐α‐gliadin 20‐mer, D‐ω‐gliadin 17‐mer, and D‐γ‐gliadin 21‐mer). […]
# or T cells in our cellular assays. […] T-cell activation was assessed b y ELISA quant ification of IL-2 secreted into the cell culture medium. […]
smiles,measurement,value
"NCCCCCNC(=O)CCCC[C@@H]1SC[C@@H]2NC(=O)N[C@@H]21 [5-BP, 5‐biotinamido‐pentylamine]",toxic effect on B cells or T cells in cellular assays,no toxic effect
NCCCNCCCCNCCCN [spermine],toxic effect on B cells or T cells in cellular assays,no toxic effect
